# Reference: US8486994B2, “Prodrugs of substituted 1,3-dioxanes and their uses” (Evolva SA, priority 2007, dated 2013)
# Legend:
# [1] = tested on: TP Receptor; assay: TP Receptor Platelet Aggregation - Rabbit (U-46619-induced, platelet rich plasma); type: cell-based, New Zealand Rabbit; details: at 0.1 mM; 1.5 μM U-46619
# Protocol: Using these experimental conditions New Zealand Rabbit (2.75±0.25 kg) platelet rich plasma, Vehicle: 0.3% DMSO, Assay: Inhibition of 1.5 μM U-46619-induced platelet aggregation, Incubation Time, Temp: 5 min at 37° C., Incubation Buffer: Trisodium Citrate (0.13 M)-treated platelet rich plasma, Bath Volume: 0.5 mL, Time of Assessment: 5 min, Quantification Method: Optical Density Change. the assay performed according to Patscheke, H., and Stregmeier, K. (1984) Investigations on a selective non-prostanoic thromboxane antagonist, BM13,177, in human platelets. Thrombosis Research 33:277-288
# The data were transformed to semi-log and then analysed using non-linear regression to a four-parameter dose-response curve Y=Bottom+(Top−Bottom)/(1+10^((Log EC50−X)*HillSlope)) using the log(agonist) vs. response—Variable slope function of GraphPad Prism software (http://graphpad.com/help/prism5/prism5help.html?usingnonlinear_regression_step_by_s.ht m).
# [2] = biological target: T1, Human Recombinant (E. coli) PPARgamma (Homo sapiens, UniProt P37231); assay: PPAR gamma binding assay ([3H]-rosiglitazone)
# T1 construct: host or cells: E. coli
# T1 sequence (P37231 1-505): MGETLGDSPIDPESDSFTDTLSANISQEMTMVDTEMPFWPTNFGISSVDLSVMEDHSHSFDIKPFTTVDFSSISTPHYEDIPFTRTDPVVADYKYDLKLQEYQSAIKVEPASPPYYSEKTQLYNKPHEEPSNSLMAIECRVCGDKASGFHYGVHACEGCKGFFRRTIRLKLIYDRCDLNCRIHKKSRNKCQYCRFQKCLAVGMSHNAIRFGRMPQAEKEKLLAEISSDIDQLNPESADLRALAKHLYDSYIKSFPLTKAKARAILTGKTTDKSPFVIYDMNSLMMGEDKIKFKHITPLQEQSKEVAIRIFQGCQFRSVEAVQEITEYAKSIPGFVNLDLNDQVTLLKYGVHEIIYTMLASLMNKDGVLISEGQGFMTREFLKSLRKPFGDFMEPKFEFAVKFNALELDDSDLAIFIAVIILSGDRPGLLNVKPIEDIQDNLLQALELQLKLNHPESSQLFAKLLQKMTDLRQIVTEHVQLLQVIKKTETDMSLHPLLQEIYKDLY
# Protocol: Human Recombinant (E. coli) PPARgamma) (h) Binding Assay:
# The results are expressed as a percent of control specific binding ((measured specific binding/control specific binding)×100) obtained in the presence of the test compounds. The IC50 values (concentration causing a half-maximal inhibition of control specific binding) and Hill coefficients (nil) were determined by non-linear regression analysis of the competition curves generated with mean replicate values using Hill equation curve fitting (Y=D+[(A−D)/(1+(C/C50)nH)], where Y=specific binding, D=minimum specific binding, A=maximum specific binding, C=compound concentration, C50=IC50, and nH=slope factor). This analysis is performed using a software developed at Cerep (Hill software) and validated by comparison with data generated by the commercial software SigmaPlot® 4.0 for Windows® (© 1997 by SPSS Inc.). The inhibition constants (Ki) are calculated using the Cheng Prusoff equation (Ki=IC50/(1+(L/KD)), where L=concentration of radioligand in the assay, and KD=affinity of the radioligand for the receptor).
Compound,Platelet aggregation Rabbit Inhibition (%) [1] [%],conversion of the prodrug to the corresponding acid [2],"binding to PPARgamma ([2]; [3H]-rosiglitazone 10 nM, 120 min at 4° C., compared with the acid of Example 1)"
COc1ccc(C(=O)NCc2cccnc2)cc1C(=O)NCc1cccnc1 [Picotamide],21,,
COC(=O)CC/C=C\C[C@@H]1COC(c2ccccc2Cl)O[C@@H]1c1ccccc1O (stereo partly drawn) [Prodrug 2],,the prodrug is converted to the corresponding acid,binds to PPARgamma at least as well as the corresponding acid
